Results reported in patent US20230338307A1, “PROPHYLACTIC AGENT, AMELIORATING AGENT, AND THERAPEUTIC AGENT FOR DRY EYE” (TSUBOTA LABORATORY, INC., priority 2020, published 2023).

Tests used:
[1] = reported for dry eye treatment; cited from earlier work
[2] = tested on: dry eye model; test: Fluorescein staining score, benzalkonium chloride dry eye model, Comparative Study 1 (Example 4); assay type: in vivo, mice; details: 3 days after start of instillation, compared to control; 0.1% (w/v) apocynin or 0.5% (w/v) hyaluronic acid twice a day; FIG. 9A
Description: After acclimating male C57BL6 mice (7 weeks old) to the experimental environment, those with almost uniform weight values and no eye abnormalities were divided into the following groups (n=4). • 7 weeks old/normal (non-dry eye group) • 7 weeks old/dry eye model+control (solvent eye drop) group • 7 weeks old/dry eye model+0.1% (w/v) apocynin eye drop group • 7 weeks old/dry eye model+0.5% (w/v) hyaluronic acid eye drop group A dry eye model was prepared by instilling the benzalkonium chloride solution at 3 μL each eye, twice a day for 8 days. After that, the control group received the 0.5% methylcellulose solution alone, and the test group received 0.1% (w/v) apocynin or 0.5% (w/v) hyaluronic acid suspended in the 0.5% methylcellulose solution twice a day for 15 days at 3 μL for each of both eyes. In Example 4, 1, 3, 6, 8, and 15 days after the start of instillation of the comparative test drug, 1 μL of the 0.1% fluorescein sodium solution was instilled into each of both eyes. Fluorescein-stained images were observed under a blue filter using a slit lamp (Kowa Co., Ltd., SL-17), and the degree of corneal epithelial damage was scored.

[3] = tested on: dry eye model; test: Fluorescein staining score, 0.2% benzalkonium chloride dry eye model, Comparative Study 2 (Example 5); assay type: in vivo, mice; details: two days after start, compared with control; 0.03% apocynin, 0.5% (w/v) hyaluronic acid or 3% diquafosol sodium twice a day; FIG. 11A
From the text: After acclimating male C57BL6 mice (7 weeks old) to the experimental environment, those with almost uniform weight values and no eye abnormalities were divided into the following groups (n=3 to 4). • 7 weeks old/normal (non-dry eye group) • 7 weeks old/dry eye model+control (solvent eye drop) group • 7 weeks old/dry eye model+0.003% (w/v) apocynin eye drop group • 7 weeks old/dry eye model+0.03% (w/v) apocynin eye drop group • 7 weeks old/dry eye model+3% diquafosol sodium eye drop group • 7 weeks old/dry eye model+0.5% (w/v) hyaluronic acid eye drop group A dry eye model was created by instilling 3 μL of the 0.2% benzalkonium chloride solution into each of both eyes twice a day for 8 days. Then, the control group received PBS alone, and the test group received 0.003% (w/v), 0.03% (w/v) apocynin and 0.5% (w/v) hyaluronic acid in PBS. The 3% diquafosol sodium eye drop was instilled into each of both eyes at 3 μL, twice a day for 9 days. In Example 5, 1, 2, 5, and 9 days after the start of instillation of the comparative test drug, 1 μL of 0.1% sodium fluorescein solution was instilled into each of both eyes. Fluorescein-stained images were observed under a blue filter using a slit lamp (Kowa Co., Ltd., SL-17), and the degree of corneal epithelial damage was scored.

Molecule | side effect specific to ingredients [1] | fluorescein staining score (corneal damage) [2] | fluorescein staining score (corneal epithelial damage) [3]
O=C(NC(Cc1cc(=O)[nH]c2ccccc12)C(=O)O)c1ccc(Cl)cc1 (centres unmarked) [rebamipide] | causes dysgeusia | – | –
hyaluronic acid [reference compound] | – | no effect was observed | no effect was observed
O=c1ccn([C@@H]2O[C@H](COP(=O)(O)OP(=O)(O)OP(=O)(O)OP(=O)(O)OC[C@H]3O[C@@H](n4ccc(=O)[nH]c4=O)[C@H](O)[C@@H]3O)[C@@H](O)[C@H]2O)c(=O)[nH]1 [diquafosol sodium, reference compound] | causes ocular discharge and eye pain | – | no effect was observed
